Test results taken from PubChem BioAssay AID588822 (The Scripps Research Institute Molecular Screening Center, 2011).
The source made the active and inactive calls.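 Rule for the calls: active = half-maximal inhibitory concentration of 10 µM or lower; inactive = the rest.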

The compounds below were run against Nuclear receptor subfamily 0 group B member 1 (Homo sapiens) (UniProt P51843) (assay: relief of Gal4-DAX1 transcriptional repression – cell-based, luminescence, HEK293, Gal4-DAX1 reporter, dose response, late-stage follow-up (AID 588822)). Settings: HEK293 Gal4-DAX1 luciferase reporter.
Nuclear receptor subfamily 0 group B member 1 (Homo sapiens), sequence (P51843 207-470 limits assumed): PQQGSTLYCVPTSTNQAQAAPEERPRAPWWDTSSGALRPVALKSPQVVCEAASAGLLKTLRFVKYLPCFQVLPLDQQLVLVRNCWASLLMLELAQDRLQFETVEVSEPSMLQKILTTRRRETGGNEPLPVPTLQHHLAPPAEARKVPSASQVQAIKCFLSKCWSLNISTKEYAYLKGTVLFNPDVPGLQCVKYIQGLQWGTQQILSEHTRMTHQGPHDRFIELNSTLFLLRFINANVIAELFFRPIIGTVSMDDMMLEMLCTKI

Structure (SMILES) | IC50
CSc1ccccc1C(=O)Nc1ccc2c(c1)OCO2 | > 69.5 µM (inactive)
COc1ccc(OC)c(C(C)NC(=O)c2cccc3ccccc23)c1 (centres undefined) | > 69.5 µM (inactive)
O=C(Nc1ccc2c(c1)OCO2)c1ccc2ccccc2c1 | > 69.5 µM (inactive)
O=C(Nc1ccc2c(c1)OCCO2)c1ccc2ccccc2c1 | > 69.5 µM (inactive)
COc1cccc(C(=O)Nc2ccc3c(c2)OCO3)c1 | > 69.5 µM (inactive)
COc1ccc(OC)c(C(C)NC(=O)c2ccc3c(c2)OCCO3)c1 (centres undefined) | > 69.5 µM (inactive)
COc1ccc(OC)c(C(C)NC(=O)c2ccccc2C)c1 (centres undefined) | > 69.5 µM (inactive)
COc1cccc(C(=O)NC(C)c2cc(OC)ccc2OC)c1 (centres undefined) | > 69.5 µM (inactive)
Cn1c(=O)n(C)c2cc(C(=O)Nc3ccc4c(c3)OCO4)ccc21 | > 69.5 µM (inactive)
COc1ccc(OC)c(C(C)NC(=O)c2ccc(Cl)cc2)c1 (centres undefined) | > 69.5 µM (inactive)
COc1ccc(OC)c(C(C)NC(=O)c2ccc(C)cc2)c1 (centres undefined) | > 69.5 µM (inactive)
Cc1occc1C(=O)Nc1ccc2c(c1)OCO2 | > 69.5 µM (inactive)
Cn1c(=O)n(C)c2cc(C(=O)Nc3ccc4c(c3)OCCO4)ccc21 | > 69.5 µM (inactive)
COc1ccc(OC)c(C(C)NC(=O)c2ccc(F)cc2)c1 (centres undefined) | > 69.5 µM (inactive)
COc1ccc(OC)c(C(C)NC(=O)c2ccccc2)c1 (centres undefined) | > 69.5 µM (inactive)
O=C(Nc1ccc2c(c1)OCO2)c1cccs1 | > 69.5 µM (inactive)

More lines, now with the values ahead:

IC50 | Structure (SMILES)
> 69.5 µM (inactive) | Cc1cc(C(=O)Nc2ccc3c(c2)OCO3)cs1
> 69.5 µM (inactive) | O=C(Cc1cccs1)Nc1ccc2c(c1)OCO2
> 69.5 µM (inactive) | COc1ccc(OC)c(C(C)NC(=O)c2ccccc2Cl)c1 (centres undefined)
> 69.5 µM (inactive) | COc1ccc(OC)c(C(C)NC(=O)c2cccc(C)c2)c1 (centres undefined)
> 69.5 µM (inactive) | O=C(Nc1ccc2c(c1)OCO2)c1ccc(C2SCC(=O)N2Cc2ccco2)cc1 (centres undefined)
> 69.5 µM (inactive) | COc1ccc(OC)c(C(C)NC(=O)c2ccc(C(C)(C)C)cc2)c1 (centres undefined)
> 69.5 µM (inactive) | CN(C)c1cccc(C(=O)Nc2ccc3c(c2)OCCO3)c1
> 69.5 µM (inactive) | COc1ccc(OC)c(C(C)NC(=O)c2c(F)cccc2Cl)c1 (centres undefined)
> 69.5 µM (inactive) | COc1ccc(OC)c(C(C)NC(=O)c2cccc(F)c2)c1 (centres undefined)
> 69.5 µM (inactive) | CSc1ccccc1C(=O)Nc1ccc2c(c1)OCCO2
> 69.5 µM (inactive) | O=C(Nc1ccc2c(c1)OCO2)c1ccc(C2SCC(=O)N2Cc2ccccc2)cc1 (centres undefined)
> 69.5 µM (inactive) | COc1cccc(C(=O)Nc2ccc3c(c2)OCCO3)c1
> 69.5 µM (inactive) | COc1ccc(OC)c(C(C)NC(=O)c2ccccc2F)c1 (centres undefined)
